According to ChEMBL document CHEMBL5442175, “EUbOPEN Chemogenomics Library - PDSP Secondary Binding” (2024):
Where a name gives a salt, the structure may show the parent alone.

Columns and labels:
[1] = target: T1, Muscarinic acetylcholine receptor M5 (Homo sapiens, UniProt P08912); experiment: (§1) PDSP Secondary Binding target: CHRM5 - Compounds are tested at 10 uM concentration, plate are incubated at room temperature in the dark for 90 minutes. Reaction are stopped by vacuum filtration onto 0.3% polyethyleneimine soaked filter mats using Filtermate harvester. Scintillation cocktail is then melted onto microwave-dried filters on a hot plate and the radio activity is counted in Microbia counter.
T1 sequence (P08912 whole entry): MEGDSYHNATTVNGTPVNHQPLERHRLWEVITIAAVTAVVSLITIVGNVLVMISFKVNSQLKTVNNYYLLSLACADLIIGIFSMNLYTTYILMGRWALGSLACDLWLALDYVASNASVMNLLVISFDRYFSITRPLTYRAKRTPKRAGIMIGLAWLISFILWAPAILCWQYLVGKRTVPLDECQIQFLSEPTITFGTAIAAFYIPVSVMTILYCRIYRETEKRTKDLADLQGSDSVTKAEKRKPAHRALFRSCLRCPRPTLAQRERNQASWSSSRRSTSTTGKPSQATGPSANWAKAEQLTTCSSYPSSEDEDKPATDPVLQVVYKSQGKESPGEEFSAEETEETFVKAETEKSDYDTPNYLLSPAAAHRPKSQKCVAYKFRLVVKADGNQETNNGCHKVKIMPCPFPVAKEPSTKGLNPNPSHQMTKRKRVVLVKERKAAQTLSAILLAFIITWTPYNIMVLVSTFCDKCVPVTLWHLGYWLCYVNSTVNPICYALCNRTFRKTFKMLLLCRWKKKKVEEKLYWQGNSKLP

[2] = target: Sigma intracellular receptor 2 (Homo sapiens, UniProt Q5BJF2); experiment: as §1, with “TMEM97” for “CHRM5”
Sequence of Sigma intracellular receptor 2 (Q5BJF2 whole entry): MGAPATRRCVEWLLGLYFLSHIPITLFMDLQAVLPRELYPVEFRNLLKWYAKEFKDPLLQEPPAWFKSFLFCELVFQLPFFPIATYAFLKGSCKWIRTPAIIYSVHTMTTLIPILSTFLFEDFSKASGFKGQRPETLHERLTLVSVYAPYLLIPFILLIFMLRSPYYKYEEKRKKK

Translocator protein = Translocator protein (Homo sapiens, UniProt P30536); experiment: as §1, with “TSPO” for “CHRM5”
Sequence of Translocator protein (P30536 whole entry): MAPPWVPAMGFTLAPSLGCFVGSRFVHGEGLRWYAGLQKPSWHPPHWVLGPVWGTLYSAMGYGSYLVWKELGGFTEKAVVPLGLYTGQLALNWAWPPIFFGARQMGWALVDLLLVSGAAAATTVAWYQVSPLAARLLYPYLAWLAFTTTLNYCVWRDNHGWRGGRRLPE

[3] = target: T2, Muscarinic acetylcholine receptor M4 (Homo sapiens, UniProt P08173); experiment: as §1, with “CHRM4” for “CHRM5”
T2 sequence (P08173 whole entry): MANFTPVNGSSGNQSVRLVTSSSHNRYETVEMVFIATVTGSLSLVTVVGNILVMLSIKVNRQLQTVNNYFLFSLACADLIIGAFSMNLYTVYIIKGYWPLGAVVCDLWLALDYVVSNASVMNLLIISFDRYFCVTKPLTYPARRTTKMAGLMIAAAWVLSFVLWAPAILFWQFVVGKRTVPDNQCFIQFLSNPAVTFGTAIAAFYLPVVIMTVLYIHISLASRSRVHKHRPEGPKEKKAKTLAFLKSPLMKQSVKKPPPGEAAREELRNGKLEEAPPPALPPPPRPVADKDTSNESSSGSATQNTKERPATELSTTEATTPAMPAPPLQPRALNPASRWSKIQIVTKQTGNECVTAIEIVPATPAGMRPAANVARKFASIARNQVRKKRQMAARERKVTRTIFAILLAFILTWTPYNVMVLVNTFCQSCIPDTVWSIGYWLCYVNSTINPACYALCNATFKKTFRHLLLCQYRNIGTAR

[4] = target: Sigma non-opioid intracellular receptor 1 (Homo sapiens, UniProt Q99720); experiment: as §1, with “SIGMAR1” for “CHRM5”
Sequence of Sigma non-opioid intracellular receptor 1 (Q99720 whole entry): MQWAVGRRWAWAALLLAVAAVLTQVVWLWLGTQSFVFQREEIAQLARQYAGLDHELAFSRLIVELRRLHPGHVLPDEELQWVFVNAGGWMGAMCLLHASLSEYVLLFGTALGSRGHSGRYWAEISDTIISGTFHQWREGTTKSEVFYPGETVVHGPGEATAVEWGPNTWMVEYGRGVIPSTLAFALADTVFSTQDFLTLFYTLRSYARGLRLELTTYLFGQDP

Histamine H1 receptor = Histamine H1 receptor (Homo sapiens, UniProt P35367); experiment: as §1, with “HRH1” for “CHRM5”
Sequence of Histamine H1 receptor (P35367 whole entry): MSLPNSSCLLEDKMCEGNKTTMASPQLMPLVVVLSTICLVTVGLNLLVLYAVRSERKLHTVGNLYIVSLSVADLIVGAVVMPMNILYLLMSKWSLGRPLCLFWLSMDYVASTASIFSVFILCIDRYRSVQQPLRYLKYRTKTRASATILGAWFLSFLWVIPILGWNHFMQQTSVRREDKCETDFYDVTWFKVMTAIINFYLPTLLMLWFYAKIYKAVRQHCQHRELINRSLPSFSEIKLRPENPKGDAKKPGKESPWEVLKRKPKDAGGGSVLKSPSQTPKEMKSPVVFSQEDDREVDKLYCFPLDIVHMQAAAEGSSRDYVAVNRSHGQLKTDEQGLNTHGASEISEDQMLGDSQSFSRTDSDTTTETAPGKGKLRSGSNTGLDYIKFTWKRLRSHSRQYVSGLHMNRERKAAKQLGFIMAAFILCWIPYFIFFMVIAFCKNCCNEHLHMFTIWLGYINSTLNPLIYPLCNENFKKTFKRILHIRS

[5] = target: T3, Muscarinic acetylcholine receptor M1 (Homo sapiens, UniProt P11229); experiment: as §1, with “CHRM1” for “CHRM5”
T3 sequence (P11229 whole entry): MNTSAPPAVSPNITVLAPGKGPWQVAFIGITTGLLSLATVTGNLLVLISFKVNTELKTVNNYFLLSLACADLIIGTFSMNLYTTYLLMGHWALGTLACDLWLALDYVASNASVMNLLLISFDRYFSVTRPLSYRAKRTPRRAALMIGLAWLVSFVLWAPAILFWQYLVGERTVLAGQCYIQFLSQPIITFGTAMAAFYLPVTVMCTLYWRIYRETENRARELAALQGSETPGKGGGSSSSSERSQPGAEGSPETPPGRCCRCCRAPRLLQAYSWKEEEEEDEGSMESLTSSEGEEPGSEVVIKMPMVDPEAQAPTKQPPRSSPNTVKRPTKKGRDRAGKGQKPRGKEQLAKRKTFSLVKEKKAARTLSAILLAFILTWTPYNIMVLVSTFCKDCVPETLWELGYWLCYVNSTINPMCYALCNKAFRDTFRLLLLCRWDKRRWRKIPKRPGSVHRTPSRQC

[6] = target: 5-hydroxytryptamine receptor 7 (Homo sapiens, UniProt P34969); experiment: as §1, with “HTR7” for “CHRM5”
Sequence of 5-hydroxytryptamine receptor 7 (P34969 whole entry): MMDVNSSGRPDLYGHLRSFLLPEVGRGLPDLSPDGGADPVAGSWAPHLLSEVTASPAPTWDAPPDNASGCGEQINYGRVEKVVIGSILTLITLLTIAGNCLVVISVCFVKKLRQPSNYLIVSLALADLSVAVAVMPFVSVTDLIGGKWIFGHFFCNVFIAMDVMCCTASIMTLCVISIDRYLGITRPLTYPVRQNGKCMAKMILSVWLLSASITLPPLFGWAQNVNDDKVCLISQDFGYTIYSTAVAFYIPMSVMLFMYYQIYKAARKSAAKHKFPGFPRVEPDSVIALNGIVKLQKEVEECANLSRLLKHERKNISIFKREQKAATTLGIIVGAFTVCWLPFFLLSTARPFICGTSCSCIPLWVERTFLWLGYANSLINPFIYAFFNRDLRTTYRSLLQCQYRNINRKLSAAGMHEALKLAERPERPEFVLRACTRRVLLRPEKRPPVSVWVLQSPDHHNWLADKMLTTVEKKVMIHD

[7] = target: Sodium-dependent noradrenaline transporter (Homo sapiens, UniProt P23975); experiment: as §1, with “SLC6A2” for “CHRM5”
Sequence of Sodium-dependent noradrenaline transporter (P23975 whole entry): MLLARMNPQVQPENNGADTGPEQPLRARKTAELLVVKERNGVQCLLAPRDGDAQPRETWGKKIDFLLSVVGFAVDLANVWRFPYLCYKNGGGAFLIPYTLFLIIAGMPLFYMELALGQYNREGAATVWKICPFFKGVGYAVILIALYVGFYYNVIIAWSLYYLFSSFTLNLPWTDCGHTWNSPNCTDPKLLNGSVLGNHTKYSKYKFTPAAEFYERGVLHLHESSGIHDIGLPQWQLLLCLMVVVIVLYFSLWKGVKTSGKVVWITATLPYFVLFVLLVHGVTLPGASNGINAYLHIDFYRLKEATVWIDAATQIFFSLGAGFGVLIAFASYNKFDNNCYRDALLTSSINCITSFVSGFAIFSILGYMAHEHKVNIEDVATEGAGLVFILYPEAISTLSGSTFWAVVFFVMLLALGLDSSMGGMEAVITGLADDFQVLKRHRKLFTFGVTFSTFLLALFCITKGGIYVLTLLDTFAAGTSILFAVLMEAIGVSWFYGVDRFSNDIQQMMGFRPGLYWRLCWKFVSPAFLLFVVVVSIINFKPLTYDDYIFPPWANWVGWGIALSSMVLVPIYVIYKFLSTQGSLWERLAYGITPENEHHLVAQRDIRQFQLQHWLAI

[8] = target: T4, 5-hydroxytryptamine receptor 2C (Homo sapiens, UniProt P28335); experiment: as §1, with “HTR2C” for “CHRM5”
T4 sequence (P28335 whole entry): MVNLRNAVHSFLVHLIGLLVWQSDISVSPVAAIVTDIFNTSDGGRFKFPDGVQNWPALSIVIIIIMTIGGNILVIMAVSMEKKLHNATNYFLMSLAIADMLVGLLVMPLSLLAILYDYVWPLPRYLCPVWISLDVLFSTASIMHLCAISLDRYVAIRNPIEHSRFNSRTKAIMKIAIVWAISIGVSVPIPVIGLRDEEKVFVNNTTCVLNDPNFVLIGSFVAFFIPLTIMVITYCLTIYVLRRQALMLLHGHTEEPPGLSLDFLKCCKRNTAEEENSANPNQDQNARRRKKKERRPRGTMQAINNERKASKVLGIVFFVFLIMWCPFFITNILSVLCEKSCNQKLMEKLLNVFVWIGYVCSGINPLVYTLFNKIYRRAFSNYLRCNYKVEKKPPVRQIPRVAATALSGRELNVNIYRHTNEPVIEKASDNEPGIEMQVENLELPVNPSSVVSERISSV

[9] = target: 5-hydroxytryptamine receptor 1D (Homo sapiens, UniProt P28221); experiment: as §1, with “HTR1D” for “CHRM5”
Sequence of 5-hydroxytryptamine receptor 1D (P28221 whole entry): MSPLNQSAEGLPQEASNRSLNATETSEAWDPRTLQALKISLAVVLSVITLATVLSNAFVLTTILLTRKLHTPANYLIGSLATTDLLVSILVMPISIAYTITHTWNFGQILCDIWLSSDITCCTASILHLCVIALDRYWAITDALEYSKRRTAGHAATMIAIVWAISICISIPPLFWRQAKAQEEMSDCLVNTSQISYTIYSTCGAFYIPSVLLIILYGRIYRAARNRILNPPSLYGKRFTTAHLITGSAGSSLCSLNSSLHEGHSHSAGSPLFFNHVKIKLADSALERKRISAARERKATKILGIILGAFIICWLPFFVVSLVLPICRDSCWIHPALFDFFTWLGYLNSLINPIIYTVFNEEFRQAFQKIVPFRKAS

[10] = target: 5-hydroxytryptamine receptor 5A (Homo sapiens, UniProt P47898); experiment: as §1, with “HTR5A” for “CHRM5”
Sequence of 5-hydroxytryptamine receptor 5A (P47898 whole entry): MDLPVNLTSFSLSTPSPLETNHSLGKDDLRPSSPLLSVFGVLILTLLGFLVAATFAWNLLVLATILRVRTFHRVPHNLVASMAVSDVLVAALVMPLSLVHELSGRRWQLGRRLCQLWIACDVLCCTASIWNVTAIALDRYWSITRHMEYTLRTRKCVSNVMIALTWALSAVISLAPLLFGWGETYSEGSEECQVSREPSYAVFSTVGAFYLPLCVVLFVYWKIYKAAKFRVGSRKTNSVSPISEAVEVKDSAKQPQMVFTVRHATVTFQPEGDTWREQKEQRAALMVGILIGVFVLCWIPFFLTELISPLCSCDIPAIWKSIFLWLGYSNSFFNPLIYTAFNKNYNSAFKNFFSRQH

D(4) dopamine receptor = target: T5, D(4) dopamine receptor (Homo sapiens, UniProt P21917); experiment: as §1, with “DRD4” for “CHRM5”
T5 sequence (P21917 whole entry): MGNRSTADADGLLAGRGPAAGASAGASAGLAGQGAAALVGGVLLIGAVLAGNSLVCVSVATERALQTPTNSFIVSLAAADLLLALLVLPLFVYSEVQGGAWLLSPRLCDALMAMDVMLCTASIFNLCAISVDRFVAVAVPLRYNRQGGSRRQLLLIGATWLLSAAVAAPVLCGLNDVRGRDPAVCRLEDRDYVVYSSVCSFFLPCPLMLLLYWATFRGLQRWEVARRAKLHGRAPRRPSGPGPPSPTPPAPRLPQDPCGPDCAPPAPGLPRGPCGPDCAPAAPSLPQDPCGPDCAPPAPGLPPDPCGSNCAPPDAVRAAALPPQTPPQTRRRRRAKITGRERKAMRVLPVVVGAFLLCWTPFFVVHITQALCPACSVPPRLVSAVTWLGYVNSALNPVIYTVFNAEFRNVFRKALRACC

[11] = target: 5-hydroxytryptamine receptor 6 (Homo sapiens, UniProt P50406); experiment: as §1, with “HTR6” for “CHRM5”
Sequence of 5-hydroxytryptamine receptor 6 (P50406 whole entry): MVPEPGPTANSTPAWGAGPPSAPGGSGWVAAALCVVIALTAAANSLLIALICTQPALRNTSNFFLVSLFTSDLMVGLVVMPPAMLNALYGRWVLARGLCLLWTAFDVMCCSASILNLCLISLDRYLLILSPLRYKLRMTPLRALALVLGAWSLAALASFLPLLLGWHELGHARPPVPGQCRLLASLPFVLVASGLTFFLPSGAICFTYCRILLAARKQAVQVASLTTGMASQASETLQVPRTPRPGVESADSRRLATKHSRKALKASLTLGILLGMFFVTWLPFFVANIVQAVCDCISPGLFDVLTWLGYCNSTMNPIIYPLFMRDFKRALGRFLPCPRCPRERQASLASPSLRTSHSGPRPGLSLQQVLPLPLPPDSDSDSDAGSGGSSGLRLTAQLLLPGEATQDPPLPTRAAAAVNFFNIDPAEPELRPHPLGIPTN

Mu-type opioid receptor = Mu-type opioid receptor (Homo sapiens, UniProt P35372); experiment: as §1, with “OPRM1” for “CHRM5”
Sequence of Mu-type opioid receptor (P35372 whole entry): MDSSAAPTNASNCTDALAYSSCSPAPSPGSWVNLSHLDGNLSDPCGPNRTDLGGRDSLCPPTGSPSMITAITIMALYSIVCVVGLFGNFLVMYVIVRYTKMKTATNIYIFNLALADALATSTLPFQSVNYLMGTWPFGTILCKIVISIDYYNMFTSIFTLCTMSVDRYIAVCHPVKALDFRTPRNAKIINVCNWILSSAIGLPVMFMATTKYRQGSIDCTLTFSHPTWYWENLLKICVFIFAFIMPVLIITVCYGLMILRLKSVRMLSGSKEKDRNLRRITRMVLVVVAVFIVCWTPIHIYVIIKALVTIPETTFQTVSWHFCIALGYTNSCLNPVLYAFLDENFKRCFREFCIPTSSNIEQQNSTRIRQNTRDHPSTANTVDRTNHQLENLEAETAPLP

[12] = target: T6, 5-hydroxytryptamine receptor 3A (Homo sapiens, UniProt P46098); experiment: as §1, with “HTR3A” for “CHRM5”
T6 sequence (P46098 whole entry): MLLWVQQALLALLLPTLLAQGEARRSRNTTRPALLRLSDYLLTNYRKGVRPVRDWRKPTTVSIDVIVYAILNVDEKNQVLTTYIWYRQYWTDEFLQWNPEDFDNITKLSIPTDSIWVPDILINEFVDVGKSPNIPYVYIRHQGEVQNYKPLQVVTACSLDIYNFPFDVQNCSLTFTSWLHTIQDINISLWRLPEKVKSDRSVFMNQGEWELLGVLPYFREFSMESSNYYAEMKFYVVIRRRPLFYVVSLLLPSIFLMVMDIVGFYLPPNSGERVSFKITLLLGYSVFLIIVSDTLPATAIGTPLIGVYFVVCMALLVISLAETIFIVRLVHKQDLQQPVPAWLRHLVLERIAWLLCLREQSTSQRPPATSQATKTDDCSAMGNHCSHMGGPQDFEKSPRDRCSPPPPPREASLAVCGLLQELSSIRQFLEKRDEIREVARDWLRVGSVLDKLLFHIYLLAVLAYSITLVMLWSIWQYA

| Ki [4] | Ki [6] | Ki (Mu-type opioid receptor) | Ki [12] | SMILES | Ki [1] | Ki [2] | Ki (Translocator protein) | Ki [3] | Ki (Histamine H1 receptor) | Ki [5] | Ki [7] | Ki [8] | Ki [9] | Ki [10] | Ki (D(4) dopamine receptor) | Ki [11] |
| --- | --- | --- | --- | --- | --- | --- | --- | --- | --- | --- | --- | --- | --- | --- | --- | --- |
|  |  |  |  | C[N+]1(C)[C@@H]2C[C@@H](OC(=O)C(O)(c3cccs3)c3cccs3)C[C@H]1[C@@H]1O[C@@H]12 [TIOTROPIUM BROMIDE] | 1.22 nM | 2060 nM | 4290 nM | 0.6 nM |  |  |  |  |  |  |  |  |
| 0.904 nM | 1100 nM |  |  | Clc1ccc(CCCOCCCN2CCCCC2)cc1 [PITOLISANT HYDROCHLORIDE] |  | 7.01 nM |  | 899 nM | 1200 nM |  | 1920 nM | 1990 nM |  |  |  |  |
|  |  |  |  | CC(C)[C@H](CO)Nc1nc(Nc2cccc(Cl)c2)c2ncn(C(C)C)c2n1 [PURVALANOLA] |  | 1130 nM | 1520 nM | > 10000 nM |  |  | 4400 nM | 3040 nM | 3800 nM | 7540 nM | 4870 nM | 2270 nM |
| 2000 nM |  | 7720 nM | 360 nM | CCc1nn2c(C)cc(C)nc2c1Cc1ccc(-c2nnc(C3CCNCC3)o2)cc1 |  | 489 nM |  |  |  |  |  |  |  |  |  |  |

| SMILES | Ki [4] | Ki [6] | Ki (Mu-type opioid receptor) | Ki [12] | Ki [1] | Ki [2] | Ki (Translocator protein) | Ki [3] | Ki (Histamine H1 receptor) | Ki [5] | Ki [7] | Ki [8] | Ki [9] | Ki [10] | Ki (D(4) dopamine receptor) | Ki [11] |
| --- | --- | --- | --- | --- | --- | --- | --- | --- | --- | --- | --- | --- | --- | --- | --- | --- |
| Cc1ccc(O)c([C@H](CCN(C(C)C)C(C)C)c2ccccc2)c1 [TOLTERODINE TARTRATE] | 216 nM |  |  |  | 3.86 nM | 167 nM |  |  | 127 nM | 8.69 nM |  |  |  |  |  |  |
